One test addresses KRAS-WT (Homo sapiens, UniProt P01116). Briefly: SOS-catalyzed nucleotide exchange assay (Procedure A, TR-FRET), KRAS-WT. The test is classed as biochemical. The note with it: nucleotide exchange, read-out: KRAS WT GNE IC50. The procedure, abridged: (§1)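 Biotinylated RAS (KRAS-G12C carries C51S/C80L/C118S; others WT background) preloaded with Bodipy-GDP plus Tb-streptavidin, preincubated with compound 60 min at RT, then human SOS and 3 mM GTP added. Final RAS/SOS: G12C 3 nM/40 nM, 60 min; WT 1 nM/40 nM, 60 min; G12V 1.25 nM/160 nM, 90 min; NRAS 1.25 nM/40 nM, 60 min. TR-FRET 520/495 ratio normalized to DMSO and saturating inhibitor; 10-point curves fit four-parameter logistic.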
In general terms: Time-resolved FRET reads energy transfer from a long-lived donor to a nearby acceptor.

For the next test, the target named is KRAS-G12D (Homo sapiens, UniProt P01116, G12D). Briefly: SOS-catalyzed nucleotide exchange assay (Procedure A, TR-FRET), KRAS-G12D. It is filed as biochemical. The note with it: nucleotide exchange, read-out: KRAS G12D GNE IC50. The procedure, abridged:
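Signal ratio (520/495 nm, excitation 340 nm) reports Bodipy-GDP retention on biotinylated RAS after SOS-catalyzed exchange with 3 mM GTP. SOS was 40 nM, except 160 nM for G12V. Room-temperature exchange lasted 60 min (90 min for G12V), following a 60 min compound preincubation.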

The next test addresses KRAS-G12V (Homo sapiens, UniProt P01116, G12V). Briefly: SOS-catalyzed nucleotide exchange assay (Procedure A, TR-FRET), KRAS-G12V. It is filed as biochemical. The note with it: nucleotide exchange, read-out: KRAS G12V GNE IC50. A digest of the protocol: as §1
A further test concerns AsPC-1 cells. Briefly: Cellular phospho-ERK assay, AsPC-1 cells (homozygous KRAS-G12D). The note with it: Homo sapiens, ASPC1, 2 h, read-out: AsPC1 pERK IC50. The test is classed as cell-based. A digest of the protocol: (§2)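 ERK phosphorylation relative to total ERK is the endpoint, detected by AlphaScreen-based SureFire multiplex following a 2-hour treatment at 37 °C. Compounds are titrated 1:3 over ten points from 30 μM.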

The subject of another test is SW620 cells. In words: Cellular phospho-ERK assay, SW620 cells (homozygous KRAS-G12V). The test is classed as cell-based. The note with it: Homo sapiens, read-out: SW620 pERK IC50. The procedure, abridged:
as §2

For the next test, the system named is MKN-1 cells. In words: Cellular phospho-ERK assay, MKN-1 cells (amplified wild-type KRAS). It is filed as cell-based. To be noted: Homo sapiens, read-out: MKN1 pERK IC50. A digest of the protocol: as §2
Where [1] appears, read: SW-620, 2 hours compound incubation.
Setting [2] is: amplified wild-type KRAS, 2 hours.

Our source for the IC50 values is US20260176289A1, “SMALL MOLECULE INHIBITORS OF KRAS PROTEINS” (Merck Sharp & Dohme LLC, priority 2022, published 2026).

Read-outs that look alike come from different tables or passages of the source.

Chain of KRAS-G12D (P01116 with tags, fused parts or gaps isoform P01116-2 G12D): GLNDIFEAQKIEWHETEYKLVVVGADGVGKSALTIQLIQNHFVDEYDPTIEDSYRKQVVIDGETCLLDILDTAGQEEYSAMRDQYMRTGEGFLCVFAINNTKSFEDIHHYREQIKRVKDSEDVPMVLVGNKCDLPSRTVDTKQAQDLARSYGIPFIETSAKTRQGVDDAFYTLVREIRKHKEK
Chain of KRAS-WT (P01116 with tags, fused parts or gaps isoform P01116-2): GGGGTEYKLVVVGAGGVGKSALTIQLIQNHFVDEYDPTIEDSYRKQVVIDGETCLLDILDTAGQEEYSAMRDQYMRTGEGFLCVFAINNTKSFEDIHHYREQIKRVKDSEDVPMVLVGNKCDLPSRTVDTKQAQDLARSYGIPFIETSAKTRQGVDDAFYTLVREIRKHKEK
Chain of KRAS-G12V (P01116 with tags, fused parts or gaps isoform P01116-2 G12V): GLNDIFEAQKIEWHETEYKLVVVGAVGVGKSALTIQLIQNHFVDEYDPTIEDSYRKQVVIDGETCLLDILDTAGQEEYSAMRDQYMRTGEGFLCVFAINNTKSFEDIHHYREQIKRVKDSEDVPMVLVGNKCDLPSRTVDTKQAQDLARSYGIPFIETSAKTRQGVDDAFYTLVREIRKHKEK

Take `CCC1(O)COCCN(c2nc(OC[C@@]34CCCN3C[C@H](F)C4)nc3sc4c(-c5c(C(F)(F)F)c(C)cc6[nH]ncc56)nccc4c23)C1` (stereo partly drawn) [Ex-201, 6-ethyl-4-(2-(((2R,7aS)-2-fluorotetrahydro-1H-pyr-rolizin-7a(5H)-yl)meth-oxy)-8-(6-methyl-5-(tri-fluoromethyl)-1H-indazol-4-yl)pyrido[4′,3′:4,5]thieno[2,3-d]pyrimidin-4-yl)-1,4-oxazepan-6-ol]: the IC50 on KRAS-WT came to 404 nM; at KRAS-G12D it was 285 nM; on KRAS-G12V, 206 nM; in the test on AsPC-1 cells (2 hours compound incubation), 923 nM; in the test with SW620 cells (setting [1]), 220 nM; in the test with MKN-1 cells (2 hours compound incubation), 373 nM.

As to `Cc1cc2[nH]ncc2c(-c2nccc3c2sc2nc(OC[C@@]45CCCN4C[C@H](F)C5)nc(N4CCOC[C@@](C)(O)C4)c23)c1[C@@H]1C[C@H]1C` (atropisomer, axis not shown; (aS)) [Ex-67, (S)-4-((R)-2-(((2R,7aS)-2-fluorotetrahydro-1H-pyrrolizin-7a(5H)-yl)methoxy)-8-(6-methyl-5-((1R,2R)-2-methylcyclopropyl)-1H-indazol-4-yl)pyrido[4′,3′:4,5]thieno [2,3-d]pyrimidin-4-yl)-6-methyl-1,4-oxazepan-6-o1], the IC50 at KRAS-WT was found to be 40 nM; at KRAS-G12D it was 11.9 nM; at KRAS-G12V, 23.1 nM; in the test on AsPC-1 cells (KRAS-G12D, 2 hours), 113 nM; in the test on SW620 cells (SW-620, KRAS-G12V, 2 hours), 323 nM; in the test on MKN-1 cells (setting [2]) it was 186 nM.

Regarding `Cc1c2nc(OC[C@@]34CCCN3C[C@H](F)C4)nc(N3CCOC[C@@](C)(O)C3)c2n2ccnc(-c3c(C4CC4)c(Cl)cc4[nH]ncc34)c12` (single isomer, unassigned) [Ex-302], the IC50 worked out at 18.6 nM on KRAS-WT; 8.99 nM on KRAS-G12D; 17 nM at KRAS-G12V; 135 nM with AsPC-1 cells (KRAS-G12D, 2 hours); 48.9 nM in the test on SW620 cells (SW-620, KRAS-G12V, 2 hours); 49.5 nM in the test on MKN-1 cells (setting [2]).

`C[C@@]1(O)COCCN(c2nc(OC[C@@]34CCCN3C[C@H](F)C4)nc3sc4c(-c5c(C6(F)CC6)c(C(F)(F)F)cc6[nH]ncc56)nccc4c23)C1` [Ex-55, (6S)-4-(8-(5-(1-fluorocyclopropyl)-6-(trifluoromethyl)-1H-indazol-4-yl)-2-(((2R,7aS)-2-fluorotetrahydro-1H-pyrrolizin-7a(5H)-yl)methoxy)pyrido[4′,3′:4,5]thi-eno[2,3-d]pyrimidin-4-yl)-6-methyl-1,4-oxazepan-6-ol]: the IC50 stood at 26.4 nM at KRAS-WT; 9.34 nM at KRAS-G12D; 18.2 nM at KRAS-G12V; 107 nM in the test with AsPC-1 cells (KRAS-G12D, 2 hours); 45.9 nM in the test with SW620 cells (SW-620, KRAS-G12V, 2 hours); 45 nM with MKN-1 cells (setting [2]).

Take `CN1CCC[C@H]1COc1nc(N2CCOC[C@@](C)(O)C2)c2c(n1)sc1c(-c3c(C4CC4)c(Cl)cc4[nH]ncc34)nccc12` [Ex-80, (6S)-4-(8-(6-chloro-5-cyclopropyl-1H-indazol-4-yl)-2-(((S)-1-methylpyrrolidin-2-yl)methoxy)pyrido[4′,3′:4,5]thi-eno[2,3-d]pyrimidin-4-yl)-6-methy1-1,4-oxazepan-6-ol]: the IC50 worked out at 89 nM at KRAS-WT; 32.7 nM at KRAS-G12D; 42 nM at KRAS-G12V; 200 nM in the test on AsPC-1 cells (KRAS-G12D, 2 hours); 131 nM in the test on SW620 cells (SW-620, KRAS-G12V, 2 hours); 143 nM with MKN-1 cells (setting [2]).

`C[C@@]1(O)COCCN(c2nc(OC[C@@]34CCCN3C[C@H](F)C4)nc3sc4c(-c5c(C6=CCC6)c(Cl)cc6[nH]ncc56)nccc4c23)C1` [Ex-70, (6S)-4-(8-(6-chloro-5-(cyclobut-1-en-1-yl)-1H-indazol-4-yl)-2-(((2R,7aS)-2-fluorotetrahydro-1H-pyrrolizin-7a(5H)-yl)methoxy)pyrido[4′,3′:4,5]thi-eno[2,3-d]pyrimidin-4-yl)-6-methyl-1,4-oxazepan-6-ol]: the IC50 was found to be 33.8 nM on KRAS-WT; 6.5 nM on KRAS-G12D; 19.6 nM on KRAS-G12V; 95.1 nM in the test on AsPC-1 cells (KRAS-G12D, 2 hours); 29.6 nM in the test on SW620 cells (SW-620, KRAS-G12V, 2 hours); 61.8 nM in the test on MKN-1 cells (setting [2]).

`C[C@@]1(O)COCCN(c2nc(OC[C@@]34CCCN3C/C(=C\F)C4)nc3sc4c(-c5c(C6CC6)c(C(F)(F)F)cc6[nH]ncc56)nccc4c23)C1` [Ex-87, (6S)-4-(8-(5-cyclopropyl-6-(trifluoromethyl)-1H-indazol-4-yl)-2-(((S,Z)-2-(fluoromethylene)tetrahy-dro-1H-pyrrolizin-7a(5H)-yl)methoxy)pyrido[4′,3′:4,5]thi-eno[2,3-d]pyrimidin-4-yl)-6-methyl-1,4-oxazepan-6-ol]: the IC50 came out at 80 nM on KRAS-WT; 41.6 nM on KRAS-G12D; 31.4 nM at KRAS-G12V; 176 nM with AsPC-1 cells (KRAS-G12D, 2 hours); 96.6 nM with SW620 cells (SW-620, KRAS-G12V, 2 hours); 109 nM in the test on MKN-1 cells (setting [2]).

Take `C#C[C@@H]1CCCc2cc3[nH]ncc3c(-c3nccc4c3sc3nc(OC[C@@]56CCCN5C[C@H](F)C6)nc(N5CCOC[C@@](C)(O)C5)c34)c21` [Ex-175]: the IC50 on KRAS-WT stood at 186 nM; at KRAS-G12D, 82.1 nM; on KRAS-G12V, 66.3 nM; in the test with AsPC-1 cells (2 hours compound incubation) it was 856 nM; in the test with SW620 cells (setting [1]), 278 nM; in the test on MKN-1 cells (2 hours compound incubation), 324 nM.

`C/C=C1\CCCc2cc3[nH]ncc3c(-c3nccc4c3sc3nc(OC[C@@]56CCCN5C[C@H](F)C6)nc(N5CCOC[C@@](C)(O)C5)c34)c21` [Ex-174, (6S)-4-(8-((E)-5-ethyl-idene-5,6,7,8-tetrahydro-1H-benzo[f]indazol-4-yl)-2-(((2R,7aS)-2-fluoro-tetrahydro-1H-pyrrolizin-7a(5H)-yl)methoxy)pyr-ido[4′,3′:4,5]thieno[2,3-d]pyrimidin-4-yl)-6-meth-yl-1,4-oxazepan-6-ol]: the IC50 on KRAS-WT is 63.8 nM; on KRAS-G12D, 23.6 nM; at KRAS-G12V, 26.2 nM; in the test on AsPC-1 cells (2 hours compound incubation) it was 254 nM; with SW620 cells (setting [1]), 91.1 nM; with MKN-1 cells (2 hours compound incubation) it was 73.6 nM.

In the case of `CCC1(F)c2c(cc3[nH]ncc3c2-c2nccc3c2sc2nc(OC[C@@]45CCCN4C[C@H](F)C5)nc(N4CCOC[C@@](C)(O)C4)c23)CC1(F)F` (stereo partly drawn) [Ex-98, (6S)-4-(8-(5-ethy1-5,6,6-trifluoro-1,5,6,7-tetrahydrocyclopenta[f]in-dazol-4-yl)-2-(((2R,7aS)-2-fluorotetrahydro-1H-pyrrolizin-7a(5H)-yl)methoxy)pyrido[4′,3′:4,5]thi-eno[2,3-d]pyrimidin-4-yl)-6-methyl-1,4-oxazepan-6-ol], the IC50 was 61.3 nM at KRAS-WT; 18.9 nM on KRAS-G12D; 20.8 nM on KRAS-G12V; 175 nM in the test on AsPC-1 cells (KRAS-G12D, 2 hours); 68.8 nM in the test with SW620 cells (SW-620, KRAS-G12V, 2 hours); 72.8 nM in the test on MKN-1 cells (setting [2]).

On to `C[C@@]1(O)COCCN(c2nc(OC[C@@]34CCCN3C[C@H](F)C4)nc3c(Cl)c4c(-c5c(C6CC6)c(Cl)cc6[nH]ncc56)nccn4c23)C1` (single isomer, unassigned) [Ex-300], for which the IC50 at KRAS-WT worked out at 14.4 nM; at KRAS-G12D it was 6.53 nM; at KRAS-G12V, 8.43 nM; in the test on AsPC-1 cells (KRAS-G12D, 2 hours) it was 222 nM; with SW620 cells (SW-620, KRAS-G12V, 2 hours) it was 39.8 nM; in the test with MKN-1 cells (setting [2]), 54.6 nM.

The term IC50 denotes the point on the concentration scale where inhibition reaches its midpoint.
